Data on two molecules can be found in US20080145431A1, “Medicinal Composition and Process for Producing the Same” (priority 2005, published 2008).

Data set [1] is described as follows: Saturation solubility in water. Format: physicochemical.
For data set [2] the following is noted: cited from earlier work.

Where two headings read alike, the source gives them in different places.

`NS(=O)(=O)c1ccc(S(=O)(=O)Nc2cccc3c(Cl)c[nH]c23)cc1` [Drug A, N-(3-chloro-7-indolyl)-1,4-benzenedisulfonamide]: the “Solubility in water under substantially physiological conditions” value in data set [1] (pH 5 to 7) is “practically insoluble”. For the same molecule, the solubility in data set [1] (water, process liquid temperature of 17° C.) is at most 100 µg/mL.
Take `COc1ccc(Cl)cc1C(=O)NCCc1ccc(S(=O)(=O)NC(=O)NC2CCCCC2)cc1` [Glibenclamide]: the “Saturation solubility in water” value in data set [2] (22° C.) is 5.9 µg/mL; in data set [2] (37° C.), 9.9 µg/mL.
